Test results taken from patent US20090131370A1, “Novel Nucleoside Derivatives” (METABASIS THERAPEUTICS , INC., priority 2004, published 2009).

Key:
[1] = Conversion of Compound 31.5 to 2′-β-methyladenosine in rat liver S9; format: in vitro ADME; settings: Rat liver S9, 37° C., pH 7.4
Protocol: (§1) The rate of Compound 31.5 conversion to nucleoside was evaluated in liver S9 obtained from rat, dog, monkey and human liver. […] The homogenate was centrifuged in a Sorvall RC-5B Refrigerated Superspeed Centrifuge (30 minutes at 10,000 g) and the resulting supernatant used in the assays. The other S9 preparations were purchased from 1n Vitro Technologies. […] Aliquots of the reaction mixture were quenched with 2 volumes of ice-cold acetonitrile/0.2% formic acid (pH 3.0) at appropriate time intervals, briefly vortexed, and then immediately placed on dry ice. After all time points were taken, the samples were centrifuged in an Eppendorf microfuge (14,000 rpm, 10 minutes). The supernatant fractions were analyzed for disappearance of prodrug (and appearance of 2′-β-methyladenosine) by reverse phase HPLC on an Agilent Zorbax SB-Aq column (511m, 4.6×150 mm). The loading mobile phase buffer (Buffer A) consisted of a 9:1 ratio (v/v) of 20 mM potassium phosphate, pH 6.2 and acetonitrile. […] The elution of reaction components was monitored at […]. Quantitation was by comparison to authentic standards prepared in liver S9 and processed in an identical fashion to the unknown samples. The rate of prodrug conversion was calculated from the linear portion of the reaction curves and expressed as nmoles converted per mg of S9 protein per minute of reaction time.

[2] = Conversion of Compound 31.5 to 2′-β-methyladenosine in dog (Beagle) liver S9; format: in vitro ADME; settings: Beagle liver S9, 37° C., pH 7.4
Protocol: as §1

[3] = Conversion of Compound 31.5 to 2′-β-methyladenosine in monkey liver S9; format: in vitro ADME; settings: Monkey liver S9, 37° C., pH 7.4
Protocol: as §1

[4] = Conversion of Compound 31.5 to 2′-β-methyladenosine in human liver S9; format: in vitro ADME; settings: Human liver S9, 37° C., pH 7.4
Protocol: as §1

[5] = Susceptibility to non-productive metabolism (deamination) in vitro in rat whole blood or plasma; format: in vitro ADME; settings: rat
Protocol: The susceptibility of 2′-β-C-methyladenosine, and its 2′,3′-carbonate prodrugs to non-productive metabolism was evaluated in vitro and in vivo. […] Aliquots of the blood and plasma samples were removed periodically and extracted with perchloric acid and methanol, respectively, and then centrifuged. The acidic supernatants were neutralized with potassium carbonate and recentrifuged. […] Analysis (50 μL) was performed on an Agilent Zorbax SB-Aq column (4.6×150 mm) eluted with a gradient consisting of a mixture of Buffer A (20 mM potassium phosphate pH 6.2) and Buffer B (acetonitrile) (0-10 min, 0-10%; 10-20 min, 10-80%, 20-21 min, 80-0%; 21-30 min, 0-0%) and UV absorbance monitoring at 265 nm. The flow rate was 1.5 mL/min and the column temperature was set at 40° C. Concentrations of metabolite were determined from calibration curves prepared by spiking known amounts of standards to plasma and processing as before.

[6] = Susceptibility to non-productive metabolism in vivo: 2′-β-C-methylinosine AUC in rat plasma and tissues; parameters: species or system male Sprague-Dawley rats; settings: male, Sprague-Dawley
Protocol: The susceptibility of 2′-β-C-methyladenosine, and its 2′,3′-carbonate prodrugs to non-productive metabolism was evaluated in vitro and in vivo. […] Also at the pre-specified times, blood (heparinized) was collected from the vena cava and centrifuged briefly to obtain plasma. […] The supernatant was then analysis for deaminated products and other metabolites by LC-UV as described above.

HCV = assay: Antiviral activity in HCV-infected human liver slice assay; format: cell-based, hepatitis C virus; settings: HCV RNA in culture media
Protocol: The effect of various compounds on HCV replication in human liver tissue was evaluated as described below.
Liver from a brain-dead HCV antibody-positive human patient was perfused with ice-cold Viaspan (Dupont Pharmaceutical) preservation solution and received on ice in Viaspan.
Precision-cut liver slices of ˜200-250 μm thickness and […] diameter were prepared and cultured in Waymouth's cell culture medium (Gibco, Inc.) that was supplemented with 10% fetal bovine serum and 10 mL/L Fungi-Bact at 37° C., and gassed with carbogen (95% O2, 5% CO2) at 0.75 liters/min. Tissue slices were maintained in culture for 72 h. Cell culture medium containing test compound in solution was changed on a daily basis.
At appropriate times of liver slice incubation, liver slices and medium were collected for analysis of HCV RNA (tissue and medium) and nucleotide levels (NTP). All collected media and tissue slices were maintained in liquid N2 until analysis.
Medium and tissue samples were analyzed for HCV RNA levels according to published procedures (Bonacini et. al., 1999) which utilize an automated, multicycle, polymerase chain reaction (PCR)-based technique. This assay has a lower limit of detection for HCV RNA of 100 viral copies/ml. Frozen liver slices were disrupted by using a combination of ultrasound probe sonication, Branson Sonifier 450 (Branson Ultrasonics, Danbury, Conn.) and homogenization using a Dounce conical pestle in 200 μls of 10% (v/v) perchloric acid (PCA). After a 5 min centrifugation at 2,500×g, the supernatants were neutralized using 3 M KOH/3 M KHCO3 and mixed thoroughly. The neutralized samples were centrifuged at 2,500 g for 5 min and NTP levels were determined by ion exchange phase HPLC (Hewlett Packard 1050) using a Whatman Partisil 5 SAX (5 μm, 4.6×250 mm) column. Samples (50 μL) were injected onto the column in 70% 10 mM ammonium phosphate buffer and 30% 1 M ammonium phosphate buffer, both at pH 3.5 and containing 6% ethanol. Nucleoside triphosphates were eluted from the column using a linear gradient to 80% 1 M ammonium phosphate pH 3.5/6% ethanol buffer, at a flow rate of 1.25 mL/min and detected by UV absorbance (254 nm).

[7] = Oral bioavailability in the rat based on liver nucleotide concentrations; settings: male, Sprague-Dawley, in vivo
Protocol: At pre-specified times of 20 min, 1, 3, 5, 8, 16, and 24 hrs post dose, liver samples (˜1 g) were collected by freeze-clamping and homogenized in 3 volumes of ice-cold 60% acetonitrile. Following centrifugation to clarify the homogenate, aliquots of the supernatants (100 μL) were evaporated to dryness on a Savant Speed-Vac Plus (1 hr, room temperature). The resulting dried residue was reconstituted with 100 μL of mobile phase and then analyzed for nucleotides by an LC-MS/MS method as described below.
The reconstituted extracts in mobile phase A (20 mM N,N-dimethylhexylamine and 10 mM propionic acid in 20% methanol) were analyzed by LC-MS/MS (Applied Biosystems, API 4000) equipped with an Agilent 1100 binary pump and a LEAP injector. […] Where possible, the quantitative analysis of liver NMP, NDP, and NTP were calculated based on a calibration curve generated from their respective standards (0.01-30 μM).
The area under the curve (AUC) to the last measurable time point were calculated by trapezoidal summation of the liver concentration-time profile of total nucleotides and NTP. The OBAV was determined by dividing the dose-normalized AUC following oral administration by the AUC following IV dosing.

## C[C@@]12OC(=O)O[C@@H]1[C@@H](CO)O[C@H]2n1cnc2c(N)ncnc21 [Compound 31.5, 2′,3′-Carbonyl-2′-C-beta-methyl-adenosine]
[1]
  Specific activity (rate of prodrug disappearance): 0.28 ± 0.03 nmol/min/mg
[2]
  Specific activity (rate of prodrug disappearance): 2.0 ± 0.3 nmol/min/mg
[3]
  Specific activity (rate of prodrug disappearance): 0.024 ± 0.003 nmol/min/mg
[4]
  Specific activity (rate of prodrug disappearance): 0.03 ± 0.005 nmol/min/mg
[5]
  deaminated product (2′-β-C-methylinosine) after incubation in rat whole blood in vitro: 2′-β-C-methylinosine was observed
[6]
  deaminated product 2′-B-C-methylinosine in plasma, liver, heart, and muscle tissue: 2′-B-C-methylinosine was detected in plasma, liver, heart, and muscle tissue
HCV; 0.25 μM
  % decrease in viral RNA relative to untreated liver slices: 0%
HCV; 2.5 μM
  % decrease in viral RNA relative to untreated liver slices: 93%
HCV; 25 μM
  % decrease in viral RNA relative to untreated liver slices: 85%
HCV; 100 μM
  % decrease in viral RNA relative to untreated liver slices: 75%
[7]
  ORAL BIOAVAILABILITY: 95%
